Assay results from US20080227797A1, “Pyridopyrimidine Derivatives as Pde4 Inhibitors for the Treatment of Inflammatory and Immune Diseases” (ASTRAZENECA AB, priority 2005, published 2008).

Biological target: recombinant Human Phosphodiesterase B2 (PDE4B2) (Homo sapiens, UniProt Q07343)
Test: Human Phosphodiesterase B2 Alpha Screen Assay
Type: biochemical
Conditions: cAMP substrate, Alpha Screen cAMP kit, 60 minutes at room temperature
Method: Human Phosphodiesterase B2 Alpha Screen Assay
The assay uses recombinant Human Phosphodiesterase B2 (PDE4B2) produced in house (PrAZL0133), stored at −20° C. The substrate uses cAMP, part of the Alpha Screen cAMP kit (Perkin Elmer, Cat# 6760625M), stored at 4° C. The Alpha Screen kit also includes biotinylated cAMP, acceptor and donor beads.
The assay additions were as follows: Test compounds and controls were added to white 384-well flat-bottom plates (Greiner, Cat# 781075), 0.2 μl in 100% DMSO, followed by 10 μl PDE4B2 in reaction buffer. The reaction buffer constitution was: 50 mM Tris (pH 7.5), 8.3 mM MgCl2, 1.7 mM EGTA and 0.01% (w/v) Brij®35. The enzyme and the compounds were incubated at room temperature for 15 minutes. Then 10 μl cAMP in reaction buffer was added. The assay was stopped after 60 minutes incubation at room temperature by adding 10 μl acceptor beads in detection buffer with 40 mM EDTA. The detection buffer constitution was: 5 mM Tris (pH 7.5), 0.1% (w/v) BSA and 0.1% (v/v) Tween 20. This addition followed by an addition of 10 μl donor beads in detection buffer, with biotinylated cAMP. The plates were then incubated, dark at room temperature, for 5 hours followed by measurement on a Fusion™-α analyser. IC50 values (presented in Table 1) were determined using Xlfit curve fitting using model 205.

Sequence of recombinant Human Phosphodiesterase B2 (PDE4B2) (Q07343 1-564 isoform Q07343-2): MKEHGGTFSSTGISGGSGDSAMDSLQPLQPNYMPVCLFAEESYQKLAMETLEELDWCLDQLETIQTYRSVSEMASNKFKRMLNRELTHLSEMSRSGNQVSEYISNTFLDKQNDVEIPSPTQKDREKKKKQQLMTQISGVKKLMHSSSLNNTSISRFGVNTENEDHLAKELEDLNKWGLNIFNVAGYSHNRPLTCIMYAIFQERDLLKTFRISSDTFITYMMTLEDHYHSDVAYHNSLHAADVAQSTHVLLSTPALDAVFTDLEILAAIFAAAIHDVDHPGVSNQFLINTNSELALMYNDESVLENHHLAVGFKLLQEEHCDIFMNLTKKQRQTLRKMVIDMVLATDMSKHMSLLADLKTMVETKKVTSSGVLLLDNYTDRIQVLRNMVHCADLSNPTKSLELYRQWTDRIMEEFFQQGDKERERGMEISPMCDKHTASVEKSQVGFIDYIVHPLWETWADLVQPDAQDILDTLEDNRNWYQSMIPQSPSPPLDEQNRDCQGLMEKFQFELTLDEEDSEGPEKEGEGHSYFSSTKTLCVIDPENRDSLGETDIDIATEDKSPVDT

| SMILES | IC50 |
| --- | --- |
| CSc1cccc(-n2c(=O)n([C@H]3CC[C@@H](NS(=O)(=O)c4ccccc4)CC3)c(=O)c3cc(F)cnc32)c1 [Example 60, N-{cis-4-[6-fluoro-1-[3-(methylthio)phenyl]-2,4-dioxo-1,4-dihydropyrido[2,3-d]pyrimidin-3(2H)-yl]cyclohexyl}benzenesulfonamide] | 32.4 nM |
| CSc1cccc(-n2c(=O)n([C@H]3CC[C@@H](NC(=O)c4cc(Cl)ccc4O)CC3)c(=O)c3cc(F)cnc32)c1 [Example 34, 5-chloro-N-{cis-4-[6-fluoro-1-[3-(methylthio)phenyl]-2,4-dioxo-1,4-dihydropyrido[2,3-d]pyrimidin-3(2H)-yl]cyclohexyl}-2-hydroxybenzamide] | 3.2 nM |
| CS(=O)(=O)c1cccc(-n2c(=O)n([C@H]3CC[C@@H](NC(=O)[C@H](O)c4ccccc4)CC3)c(=O)c3cc(F)cnc32)c1 [Example 42, (2R)-N-{cis-4-[6-fluoro-1-[3-(methylsulfonyl)phenyl]-2,4-dioxo-1,4-dihydropyrido[2,3-d]pyrimidin-3(2H)-yl]cyclohexyl}-2-hydroxy-2-phenylacetamide] | < 16 nM |
| O=C(N[C@H]1CC[C@@H](n2c(=O)c3cc(F)cnc3n(-c3ccc(F)c(F)c3)c2=O)CC1)C(O)c1ccccc1 (relative stereo) [Example 2, N-{cis-4-[1-(3,4-difluorophenyl)-6-fluoro-2,4-dioxo-1,4-dihydropyrido[2,3-d]pyrimidin-3(2H)-yl]cyclohexyl}-2-hydroxy-2-phenylacetamide] | 0.9 nM |
| CSc1cccc(-n2c(=O)n([C@H]3CC[C@@H](NC(=O)c4cc(CO)ccc4O)CC3)c(=O)c3cc(F)cnc32)c1 [Example 36, N-{cis-4-[6-fluoro-1-[3-(methylthio)phenyl]-2,4-dioxo-1,4-dihydropyrido[2,3-d]pyrimidin-3(2H)-yl]cyclohexyl}-2-hydroxy-5-(hydroxymethyl)benzamide] | 2.9 nM |
| COC(=O)c1cccc(-n2c(=O)n([C@H]3CC[C@@H](NC(=O)c4cccs4)CC3)c(=O)c3cc(F)cnc32)c1 [Example 66, methyl 3-[6-fluoro-2,4-dioxo-3-{cis-4-[(2-thienylcarbonyl)amino]cyclohexyl}-3,4-dihydropyrido[2,3-d]pyrimidin-1(2H)-yl]benzoate] | 4.8 nM |
| C#Cc1ccc(C(=O)N[C@H]2CC[C@@H](n3c(=O)c4cc(F)cnc4n(-c4ccc(F)c(F)c4)c3=O)CC2)cc1 [Example 102, N-{cis-4-[1-(3,4-difluorophenyl)-6-fluoro-2,4-dioxo-1,4-dihydropyrido[2,3-d]pyrimidin-3(2H)-yl]cyclohexyl}-4-ethynylbenzamide] | 1 nM |
| COC(=O)c1cccc(-n2c(=O)n([C@H]3CC[C@@H](NC(C)=O)CC3)c(=O)c3cc(F)cnc32)c1 [Example 67, methyl 3-[3-[cis-4-(acetylamino)cyclohexyl]-6-fluoro-2,4-dioxo-3,4-dihydropyrido[2,3-d]pyrimidin-1(2H)-yl]benzoate] | 21.2 nM |
| CSc1cccc(-n2c(=O)n([C@H]3CC[C@@H](NC(=O)CO)CC3)c(=O)c3cc(F)cnc32)c1 [Example 39, N-{cis-4-[6-fluoro-1-[3-(methylthio)phenyl]-2,4-dioxo-1,4-dihydropyrido[2,3-d]pyrimidin-3(2H)-yl]cyclohexyl}-2-hydroxyacetamide] | 23.7 nM |
| O=C([C@H](O)c1ccccc1)N1CCC(n2c(=O)c3cc(F)cnc3n(-c3ccc(F)c(F)c3)c2=O)CC1 [Example 77, 1-(3,4-difluorophenyl)-6-fluoro-3-{1-[(2R)-2-hydroxy-2-phenylacetyl]piperidin-4-yl}pyrido[2,3-d]pyrimidine-2,4(1H,3H)-dione] | 147 nM |
| COC(=O)c1cccc(-n2c(=O)n([C@H]3CC[C@@H](NC(=O)c4cc5ccccn5n4)CC3)c(=O)c3cc(F)cnc32)c1 [Example 68, methyl 3-[6-fluoro-2,4-dioxo-3-{cis-4-[(pyrazolo[1,5-a]pyridin-2-ylcarbonyl)amino]cyclohexyl}-3,4-dihydropyrido[2,3-d]pyrimidin-1(2H)-yl]benzoate] | 0.6 nM |
| N#Cc1ccc(C(=O)N[C@H]2CC[C@@H](n3c(=O)c4cc(F)cnc4n(-c4ccc(F)c(F)c4)c3=O)CC2)cc1 [Example 89, 4-cyano-N-{cis-4-[1-(3,4-difluorophenyl)-6-fluoro-2,4-dioxo-1,4-dihydropyrido[2,3-d]pyrimidin-3(2H)-yl]cyclohexyl}benzamide] | 10.8 nM |
| O=C(N[C@H]1CC[C@@H](n2c(=O)c3cc(F)cnc3n(-c3ccc(F)c(F)c3)c2=O)CC1)c1ccc2ncsc2c1 [Example 91, N-{cis-4-[1-(3,4-difluorophenyl)-6-fluoro-2,4-dioxo-1,4-dihydropyrido[2,3-d]pyrimidin-3(2H)-yl]cyclohexyl}-1,3-benzothiazole-6-carboxamide] | 2.09 nM |
| COCC(=O)N[C@H]1CC[C@@H](n2c(=O)c3cc(F)cnc3n(-c3cccc(C(=O)OC)c3)c2=O)CC1 [Example 65, methyl 3-[6-fluoro-3-{cis-4-[(methoxyacetyl)amino]cyclohexyl}-2,4-dioxo-3,4-dihydropyrido[2,3-d]pyrimidin-1(2H)-yl]benzoate] | 11.1 nM |

The remaining lines, values ahead:

| IC50 | SMILES |
| --- | --- |
| 60.1 nM | CS(=O)(=O)N[C@H]1CC[C@@H](n2c(=O)c3cc(F)cnc3n(-c3ccc(F)c(F)c3)c2=O)CC1 [Example 47, N-{cis-4-[1-(3,4-Difluorophenyl)-6-fluoro-2,4-dioxo-1,4-dihydropyrido[2,3-d]pyrimidin-3(2H)-yl]cyclohexyl}methanesulfonamide] |
| 1.3 nM | Cc1ccc(C(=O)N[C@H]2CC[C@@H](n3c(=O)c4cc(F)cnc4n(-c4ccc(F)c(F)c4)c3=O)CC2)cc1O [Example 15, N-{cis-4-[1-(3,4-difluorophenyl)-6-fluoro-2,4-dioxo-1,4-dihydropyrido[2,3-d]pyrimidin-3(2H)-yl]cyclohexyl}-3-hydroxy-4-methylbenzamide] |
| 0.9 nM | O=C(Cc1cccc(O)c1)N[C@H]1CC[C@@H](n2c(=O)c3cc(F)cnc3n(-c3ccc(F)c(F)c3)c2=O)CC1 [Example 28, N-{cis-4-[1-(3,4-difluorophenyl)-6-fluoro-2,4-dioxo-1,4-dihydropyrido[2,3-d]pyrimidin-3(2H)-yl]cyclohexyl}-2-(3-hydroxyphenyl)acetamide] |
| 1.5 nM | COc1cc(C(=O)N[C@H]2CC[C@@H](n3c(=O)c4cc(F)cnc4n(-c4ccc(F)c(F)c4)c3=O)CC2)ccc1O [Example 14, N-{cis-4-[1-(3,4-difluorophenyl)-6-fluoro-2,4-dioxo-1,4-dihydropyrido[2,3-d]pyrimidin-3(2H)-yl]cyclohexyl}-4-hydroxy-3-methoxybenzamide] |
| 1 nM | COc1ccc(C(=O)N[C@H]2CC[C@@H](n3c(=O)c4cc(F)cnc4n(-c4ccc(F)c(F)c4)c3=O)CC2)cc1O [Example 26, N-{cis-4-[1-(3,4-difluorophenyl)-6-fluoro-2,4-dioxo-1,4-dihydropyrido[2,3-d]pyrimidin-3(2H)-yl]cyclohexyl}-3-hydroxy-4-methoxybenzamide] |
| 2 nM | COc1ccc(C(=O)N[C@H]2CC[C@@H](n3c(=O)c4cc(F)cnc4n(-c4ccc(F)c(F)c4)c3=O)CC2)c(O)c1 [Example 19, N-{cis-4-[1-(3,4-difluorophenyl)-6-fluoro-2,4-dioxo-1,4-dihydropyrido[2,3-d]pyrimidin-3(2H)-yl]cyclohexyl}-2-hydroxy-4-methoxybenzamide] |
| 3.8 nM | COC(=O)CCC(=O)N[C@H]1CC[C@@H](n2c(=O)c3cc(F)cnc3n(-c3ccc(F)c(F)c3)c2=O)CC1 [Example 23, methyl 4-({cis-4-[1-(3,4-difluorophenyl)-6-fluoro-2,4-dioxo-1,4-dihydropyrido[2,3-d]pyrimidin-3(2H)-yl]cyclohexyl}amino)-4-oxobutanoate] |
| 6.68 nM | O=C(N[C@H]1CC[C@@H](n2c(=O)c3cc(F)cnc3n(-c3ccc(F)c(F)c3)c2=O)CC1)c1cc[nH]c1 [Example 96, N-{cis-4-[1-(3,4-difluorophenyl)-6-fluoro-2,4-dioxo-1,4-dihydropyrido[2,3-d]pyrimidin-3(2H)-yl]cyclohexyl}-1H-pyrrole-3-carboxamide] |
| 1.7 nM | COC(=O)CCCC(=O)N[C@H]1CC[C@@H](n2c(=O)c3cc(F)cnc3n(-c3ccc(F)c(F)c3)c2=O)CC1 [Example 27, methyl 5-({cis-4-[1-(3,4-difluorophenyl)-6-fluoro-2,4-dioxo-1,4-dihydropyrido[2,3-d]pyrimidin-3(2H)-yl]cyclohexyl}amino)-5-oxopentanoate] |
| 2.3 nM | O=C(N[C@H]1CC[C@@H](n2c(=O)c3cc(F)cnc3n(-c3ccc(F)c(F)c3)c2=O)CC1)c1ccc(O)cc1 [Example 6, N-{cis-4-[1-(3,4-difluorophenyl)-6-fluoro-2,4-dioxo-1,4-dihydropyrido[2,3-d]pyrimidin-3(2H)-yl]cyclohexyl}-4-hydroxybenzamide] |
| 2.2 nM | O=C(Cc1ccc(O)cc1)N[C@H]1CC[C@@H](n2c(=O)c3cc(F)cnc3n(-c3ccc(F)c(F)c3)c2=O)CC1 [Example 8, N-{cis-4-[1-(3,4-difluorophenyl)-6-fluoro-2,4-dioxo-1,4-dihydropyrido[2,3-d]pyrimidin-3(2H)-yl]cyclohexyl}-2-(4-hydroxyphenyl)acetamide] |
